In patent publication EP0089860A1, “Levogyrous isomer of mequitazine, process for its preparation and pharmaceutical preparations containing it” (priority 1982, dated 1983):

Test system: souris
Assay: Acute toxicity in the mouse
Type: in vivo
Conditions: comparison of composé (Ia) and Méquitazine

SMILES | toxicité aiguë
c1ccc2c(c1)Sc1ccccc1N2CC1CN2CCC1CC2 (racemic) [Méquitazine racémique, [(aza-1 bicyclo(2,2,2)octyl-3)méthyl]-10 10H-phénothiazine] | sensiblement identiques
c1ccc2c(c1)Sc1ccccc1N2C[C@@H]1CN2CCC1CC2 [Composé (Ia), [(aza-1 bicyclo(2,2,2)octyl-3 (S))méthyl]-10 10H-phénothiazine] | sensiblement identiques
